Patent US11219627B2, “Clearance of amyloid beta” (priority 2014, dated 2022)

Tests used:
[1] = liver microsome stability; type: in vitro ADME, Mouse
[2] = tested on: adrenal chromaffin and human neuroblastoma cells; details: cited from earlier work
[3] = tested on: patients with mild AD; details: 12 weeks; cited from earlier work
[4] = tested on: CaCo-2 cells; assay: in vitro permeability of a layer of CaCo-2 cells; type: in vitro ADME, human; details: for mean A−>B Papp (apparent permeability): test conc 50 μM
[5] = tested on: mild to moderate Alzheimer patients; details: 78-week study; cited from earlier work
[6] = tested on: γ-secretase; details: human, in vivo; cited from earlier work
[7] = tested on: γ-secretase; details: cited from earlier work
[8] = tested on: γ-secretase; details: in vivo; cited from earlier work
[9] = tested on: Primary rat cultured cortical neurons; details: cited from earlier work
[10] = tested on: mice; details: cited from earlier work
[11] = tested on: Mice with lesions of the nucleus basalis magnocellularis (nBm); details: cited from earlier work
[12] = tested on: Bv-2 microglial cells; assay: Abeta 1-42 oligomer clearance in microglial Bv-2 cell culture; type: cell-based; details: applied for 24 hours, 0.11 to 0.67 μM; oligomerized Aβ1-42 10 μM for 6 h
Procedure: Abeta oligomers were prepared using beta-amyioid (1-42) from American Peptide (Product #62-0-80). One aliquot was dissolved in an adequate volume of TBS (50 mM Tris-Buffer, 150 mM NaCl, pH=7.4) to achieve a final concentration of 1.7 mg/ml (corresponding to 340 μM). The solution was sonicated for 2 minutes and then diluted 1:2 in water to obtain a final concentration of 170 μM. Next, the Abeta was allowed to aggregate at 4′C for 48 hours. Prior to application, the solution was sonicated for another minute.
Bv-2 microglial cells were kept in culture medium (DMEM medium, 10% FBS, 2 mM glutamine, 1% Penc/Strep) until 80-90% confluency. Cells were maintained at 37° C., 95% humidity and 5% CO2. Afterwards, cells were seeded in culture medium on 24-well plates at a cell density of 1×10^5 cells per well. After 24 h, the medium was exchanged for the treatment medium (DMEM medium, 5% FBS, 2 mM glutamine). […] The medium was separated by affinity (removing monomers) and the oligomers not phagocytosed were disaggregated by HFIP treatment and measured by MSD. […]
The immune assay was carried out according to the manual and plates were read on the Sector Imager (MSD). Analyte levels were evaluated according to adequate Aβ peptide standards (MSD). […] Group differences are evaluated by one-way ANOVA.

[13] = stability in mouse plasma
[14] = target: T1, acetylcholinesterase (Homo sapiens, UniProt P22303); assay: acetylcholinesterase inhibition; type: biochemical
From the text: This compound was first described in Han et al as a cholinesterase inhibitor in Bioorg. & Medicinal Chemistry Letters 1, 11 579-580 (1991).

[15] = tested on: Rat cortical neurons; assay: neurite network assessment with Aβ1-42 oligomers in cortical cell culture; type: cell-based
Procedure: Rat cortical neurons were cultured as described by Callizot et al (J Neurosci Res 2013, 91:706-716). On day 11 of culture, Aβ oligomer solution, 20 μM, was applied. The Aβ oligomer preparation, having an average weight of 90 kDa, prepared as described by Callizot et al (op cit) contained only diffusible species, not fibrils or protofibrils. Briefly, Aβ1-42 peptide at a concentration of 40 μM was dissolved in the culture medium, gently agitated for 3 days at 37° C. in the dark, and used immediately after dilution. SDL 11349 and BDNF (50 ng/ml) were dissolved in culture medium (maximum of 0.1% DMSO final concentration) then pre-incubated with primary cortical neurons for 24 h before the Aβ1-42 oligomer solution application.
The oligomers were incubated with the neurons and various concentrations of SDL 11349, or BDNF, 50 ng/ml, the positive control, for 24 hours, in 6 replicates per condition. Then the supernatant was removed and the neurons were fixed with a cold ethanol and acetic acid solution. The cells were permeabilized with 0.1% saponin and then incubated for 2 h with mouse monoclonal antibody […] microtubule-associated protein 2 (MAP-2). Subsequently, Alexa-Fluor 488 goat anti-mouse IgG was applied, and images were obtained and analyzed automatically.

[16] = target: T2, α7 nicotinic receptors (Rattus norvegicus, UniProt Q05941); details: cited from earlier work
T2 construct: Primary cultured rat neurons can be depolarized by the application of 1.5 mM choline; endogenous in cells; host or cells: primary cultured rat neurons

[17] = tested on: CA1 pyramidal neurons in the dorsal hippocampus; assay: dendritic spine assessment after 5 days ip treatment; type: in vivo, mice
Procedure: Adult C57B16 mice, (8 weeks old) were administered vehicle or SDL 11349, 0.005, 0.03, 0.07, 0.1 or 0.2 mg/kg, ip, per day for five days prior to sacrifice after rapid anesthetization with isofluorane. Brain tissue was sectioned into […] slices from anterior to posterior extremes.
Ballistic dye labelling was performed, followed by laser-scanning confocal microscopy (Olympus FV1000) using a 63× objective (1.42 NA) to scan individually labelled neurons at high resolution (0.103×0.103×0.33 μm voxels). Target neurons were identified in the brain region of interest by anatomical location and cell morphology. Microscopy was performed blind to experimental conditions. A minimum of 5 samples per animal were measured for each segment.
Blind deconvolution (AutoQuant) was applied to raw three-dimensional digital images which were then analyzed for spine density and morphology by trained analysts. Individual spines were measured manually for (a) head diameter, (b) length, and (c) neck thickness from image Z-stacks using custom-built Afraxis ESP software. Each dendrite was analyzed by 3 independent analysts.
Automated image assignment software (C++) distributed images to analysts in a randomized manner and ensured that each analyst performed measurements of near equal numbers of dendrites per group. Analysts were blinded to all experimental conditions. […] For spine density and spine morphological classification, data across analysts were averaged to report data for each dendrite. Data population values (N's) were reported from dendrites collected equally from all mice.
Values are reported in tables and plots as group means±standard errors of the mean (SEMs). For all group comparisons of parametric values, statistical significance was determined using the analysis of variance test (ANOVA; SPSS). Post-hoc comparisons were assessed using the Student's t-test (2 tails). […]
Dendritic spine morphology was analyzed from samples taken from secondary apical dendrites, and secondary basal dendrites of CA1 pyramidal neurons in the dorsal hippocampus. […] A 50 μm segment was analyzed from each location.

[18] = target: T1, acetylcholinesterase; details: read-out: IC50 for acetylcholinesterase inhibition; cited from earlier work
[19] = tested on: patients with moderate, but not mild Alzheimer's disease; details: 36-week study; cited from earlier work
[20] = 78-week study; cited from earlier work

T1 sequence (P22303 32-614, species assumed): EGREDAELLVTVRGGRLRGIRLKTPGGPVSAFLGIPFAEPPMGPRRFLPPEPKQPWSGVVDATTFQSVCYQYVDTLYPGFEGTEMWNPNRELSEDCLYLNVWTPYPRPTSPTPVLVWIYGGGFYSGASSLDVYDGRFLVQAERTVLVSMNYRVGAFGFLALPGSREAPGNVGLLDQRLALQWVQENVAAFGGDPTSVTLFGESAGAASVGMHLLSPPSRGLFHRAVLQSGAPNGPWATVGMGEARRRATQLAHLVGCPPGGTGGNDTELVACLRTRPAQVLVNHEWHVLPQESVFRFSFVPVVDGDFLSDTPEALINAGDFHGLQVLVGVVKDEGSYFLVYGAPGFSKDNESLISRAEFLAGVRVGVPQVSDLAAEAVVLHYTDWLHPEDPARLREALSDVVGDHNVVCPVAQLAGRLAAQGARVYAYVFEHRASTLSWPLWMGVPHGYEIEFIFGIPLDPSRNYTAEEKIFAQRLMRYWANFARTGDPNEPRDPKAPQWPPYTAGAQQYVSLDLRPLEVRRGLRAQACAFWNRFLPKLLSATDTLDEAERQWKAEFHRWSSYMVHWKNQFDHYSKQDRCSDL
T2 sequence (Q05941 23-502): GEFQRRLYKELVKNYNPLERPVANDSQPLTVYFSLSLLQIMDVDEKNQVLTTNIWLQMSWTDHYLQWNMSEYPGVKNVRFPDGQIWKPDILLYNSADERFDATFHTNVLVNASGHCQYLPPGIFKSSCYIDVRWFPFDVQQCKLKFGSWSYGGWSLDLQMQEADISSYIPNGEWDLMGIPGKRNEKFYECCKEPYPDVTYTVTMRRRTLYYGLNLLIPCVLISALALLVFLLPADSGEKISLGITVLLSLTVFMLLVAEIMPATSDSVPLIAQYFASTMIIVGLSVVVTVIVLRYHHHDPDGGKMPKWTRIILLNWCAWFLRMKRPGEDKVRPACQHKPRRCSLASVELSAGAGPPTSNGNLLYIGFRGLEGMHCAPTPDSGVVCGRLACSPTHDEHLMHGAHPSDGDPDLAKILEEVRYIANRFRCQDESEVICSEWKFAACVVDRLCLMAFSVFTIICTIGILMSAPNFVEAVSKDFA

COc1ccc2c3c1O[C@H]1C[C@@H](O)C=C[C@@]31CCN(C)C2 [Galanthamine HBr]
NADPH-dependent T1/2 (half-life) ([1]; 5.0 μM, Mouse): >1 h
NADPH-free T1/2 (half-life) ([1]; 5.0 μM, Mouse): >1 h

Nc1c2c(nc3ccccc13)CCCC2 [tacrine]
neuroprotective effect [2]: did not occur

CN(C)Cc1ccc2c(Cl)cc(Cl)c(O)c2n1 [PBT2]
CSF Aβ42 [3]: decreased significantly

CNC(=C[N+](=O)[O-])NCCSCc1ccc(CN(C)C)o1 [Ranitidine]
mean A−>B Papp (apparent permeability) [4]: 1.1 10^−6 cm s^−1

O[C@H]1[C@H](O)[C@@H](O)[C@H](O)[C@@H](O)[C@@H]1O [ELND005, scyllo-inositol]
CSF Aβ and ventricular volume [5]: Significant decreases in CSF Aβ and increases in ventricular volume
cognitive or behavioral tests [5]: no benefit on any cognitive or behavioral test

C[C@@H](C(=O)O)c1ccc(-c2ccccc2)c(F)c1 [tarenflurbil]
Phase III outcome [6]: failed in Phase III

NC(=O)[C@@H](CCC(F)(F)F)N(Cc1ccc(-c2ncon2)cc1F)S(=O)(=O)c1ccc(Cl)cc1 [avagacestat]
CSF Aβ40 ([7]; human, in vivo): effectively reduces CSF Aβ40
conversion to dementia ([7]; prodromal Alzheimer's disease, reduced CSF Aβ42): no reduction in conversion to dementia

CC(C)[C@H](O)C(=O)N[C@@H](C)C(=O)N[C@@H]1C(=O)N(C)CCc2ccccc21 [semagacestat]
CSF Aβ [8]: potently decreased CSF Aβ
reason for termination of Phase III trials [8]: poorer performance in treated than placebo patients, and an increased incidence of skin cancer

CN1CCCC1c1cccnc1 (centres unmarked) [Nicotine]
protection against Aβ plus glutamate toxicity [9]: protective against Aβ plus glutamate toxicity

CCCCNC(=O)O[C@H]1C=C[C@@]23CCN(C)Cc4ccc(OC)c(c42)O[C@H]3C1 [SDL 11349, n-butylcarbamate derivative (4aS,6R,8aS)-5,6,9,10,11,12-hexahydro-3-methoxy-11-methyl-4aH-[1]benzofuro[3a,3,2-ef][2]benzazepin-6-ol]
NADPH-free T1/2 (half-life) ([1]; 5.0 μM, Mouse): >1 h
half-life in liver microsomes ([1]; in-vitro preparation): greater than 60 minutes
microsomal CLint at 5 μM ([1]; liver microsomes, 5.0 μM, Mouse, read-out: NADPH-dependent CLint (microsomal intrinsic clearance)): 23.5 µL/min/mg
dose at which decreased motility appeared [10]: > 30 mg/kg
lethality (no lethality up to) [10]: > 100 mg/kg
adverse effects observed ([10]; doses of 50-100 mg/kg): wobbly and off-balance with rapid heart rate still present at 4 hours, but were recovered at 24 hours
additional time remaining in the lighted compartment versus saline ([11]; given during training, optimal performance): about 100 seconds
best dose for memory enhancement ([11]; passive avoidance): 0.5 mg/kg
predicted oral bioavailability ([4]; based on in vitro CaCo-2 permeability): 80%
mean A−>B Papp (apparent permeability) [4]: 20.8 10^−6 cm s^−1
reduction of β-amyloid oligomer concentration in the medium [12]: 38-40%
plasma concentrations at two hours compared with galantamine [13]: slightly lower than those of galantamine
stability in mouse plasma [13]: stable for greater than two hours
enzymatic activity relative to galantamine [14]: about 36%
effect on Aβ oligomer-induced loss of neurite network ([15]; 1 μM, Aβ oligomer 20 μM, 24 h): blocked the toxic effect of the Aβ oligomers
enhancement of the depolarization caused by choline ([16]; 1 μM, 1.5 mM choline): 15.9±2.1%
enhancement in presence of FK-1, antibody to the galantamine recognition site [16]: blocked
total spine density, basal samples ([17]; 0.005-0.2 mg/kg ip per day for five days): no effect
total spine density, apical dendritic samples, versus vehicle ([17]; 0.005-0.2 mg/kg ip per day for five days, all dose groups): statistically significant difference (p<0.05, 2-tailed t-test) or trend (p<.01) compared to vehicle controls
mature spines on apical dendrites of CA1 pyramidal neurons ([17]; treatment for 5 days): specifically increases mature spines
IC50 [18]: 1.09 µM

Oc1c(I)cc(Cl)c2cccnc12 [Clioquinol]
ADAS-cog [19]: decreased deterioration on the ADAS-cog

NCCCS(=O)(=O)O [Tramiprosate]
ADAS-cog [20]: trend towards improvement on the ADAS-cog
hippocampal volume [20]: reduction of hippocampal volume loss

B1: BDNF: brain-derived neurotrophic factor, positive control, gold standard of the neurite assay (protein, UniProt P23560 19-247, looked up)
Neurotrophic factor BDNF …: APMKEANIRGQGGLAYPGVRTHGTLESVNGPKAGSRGLTSLADTFEHVIEELLDEDQKVRPNEENNKDADLYTSRVMLSSQVPLEPPLLFLLEEYKNYLDAANMSMRVRRHSDPARRGELSVCDSISEWVTAADKKTAVDMSGGTVTVLEKVPVSKGQLKQYFYETKCNPMGYTKEGCRGIDKRHWNSQCRTTQSYVRALTMDSKKRIGWRFIRIDTSCVCTLTIKRGR
effect on Aβ oligomer-induced loss of neurite network ([15]; 50 ng/ml, positive control): preserves the neurite network
